The numbers were not newly measured in patent US20220347150A1, “TASIMELTEON USE IN TREATING SLEEP ABERRATIONS” (Vanda Pharmaceuticals Inc., priority 2019, published 2022), which cites them from elsewhere.

The conditions of series [1]: subjects with a 5-hour advance in sleep-wake cycle; treatment relative to placebo; reported in US 20090105333A1 (WO2007/137244).
The conditions of series [2]: preclinical models of acute phase-shifting and chronic re-entrainment.

On to `CCC(=O)NC[C@@H]1C[C@H]1c1cccc2c1CCO2` [tasimelteon, Tasimelteon], for which, in series [1], the “shifting dim light melatonin onset” value is given as “positive outcomes” and the sleep efficacy entry is given as “positive outcomes”. Further, in series [2], the chronobiotic activity entry is reported as “potent chronobiotic activity”.
